From patent publication US10689367B2, “Triazole pyridyl compounds as agonists of the APJ receptor” (AMGEN INC., priority 2016, dated 2020) come the findings set out here.

Chain of human APJ receptor (P35414 whole entry): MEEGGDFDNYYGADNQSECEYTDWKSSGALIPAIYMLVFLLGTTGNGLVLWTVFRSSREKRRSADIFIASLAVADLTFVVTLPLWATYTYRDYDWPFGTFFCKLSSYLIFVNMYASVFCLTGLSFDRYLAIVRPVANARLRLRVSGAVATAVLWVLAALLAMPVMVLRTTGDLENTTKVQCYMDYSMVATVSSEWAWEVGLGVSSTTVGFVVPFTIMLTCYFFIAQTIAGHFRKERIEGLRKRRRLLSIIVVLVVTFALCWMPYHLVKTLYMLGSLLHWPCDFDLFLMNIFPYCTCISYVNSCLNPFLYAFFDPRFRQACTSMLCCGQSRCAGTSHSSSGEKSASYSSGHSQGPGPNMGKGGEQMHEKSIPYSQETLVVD

For this experiment, the target named is human APJ receptor (Homo sapiens (Human), UniProt P35414). In words: [35S]GTPγS binding assay on membranes from CHO cells stably expressing human APJ receptor. It is filed as biochemical. To be noted: membranes of CHO cells stably expressing human APJ receptor, read-out: Activity hAPJ SPA EC50 IP. In outline:
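[35S]GTPγS binding measured on membranes from CHO cells stably expressing FLAG-tagged human APJ, with GDP, MgCl2 and NaCl levels optimized beforehand. Incubation 90 min at RT, imager read-out; EC50 from non-linear regression, averaged over several independent experiments.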
(In general: GTPγS resists hydrolysis and so accumulates on activated G proteins.)
For orientation: EC50 means the concentration that produces a half-maximal response. `CC[C@H](c1c(C)noc1C)n1c(NS(=O)(=O)[C@@H](C)[C@H](OC)c2ncc(Cl)cn2)nnc1-c1cccc(OC)n1` (mixture of isomers) [Example 211.0, (1R,2S)-1-(5-chloro-2-pyrimidinyl)-N-(4-((1R)-1-(3,5-dimethyl-1,2-oxazol-4-yl)propyl)-5-(6-methoxy-2-pyridinyl)-4H-1,2,4-triazol-3-yl)-1-methoxy-2-propanesulfonamide and (1R,2S)-1-(5-chloro-2-pyrimidinyl)-N-(4-((1S)-1-(3,5-dimethyl-1,2-oxazol-4-yl)propyl)-5-(6-methoxy-2-pyridinyl)-4H-1,2,4-triazol-3-yl)-1-methoxy-2-propanesulfonamide]: the EC50 is 1.8 nM.

As to `CCc1cc(Cn2c(NS(=O)(=O)[C@@H](C)[C@H](C)c3ncc(Cl)cn3)nnc2-c2cccc(OC)n2)on1` [Example 196.0, (2S,3R)-3-(5-chloropyrimidin-2-yl)-N-(4-((3-ethylisoxazol-5-yl)methyl)-5-(6-methoxypyridin-2-yl)-4H-1,2,4-triazol-3-yl)butane-2-sulfonamide], the EC50 came to 4.8 nM.

Consider `COc1cccc(-c2nnc(NS(=O)(=O)[C@@H](C)[C@@H](OC(C)C)c3ncc(C)cn3)n2C[C@H]2CCCO2)n1` (racemic) [Example 277.0, (1S,2S)-1-isopropoxy-N-(5-(6-methoxypyridin-2-yl)-4-(((R)-tetrahydrofuran-2-yl)methyl)-4H-1,2,4-triazol-3-yl)-1-(5-methylpyrimidin-2-yl)propane-2-sulfonamide or (1S,2S)-1-isopropoxy-N-(5-(6-methoxypyridin-2-yl)-4-(((S)-tetrahydrofuran-2-yl)methyl)-4H-1,2,4-triazol-3-yl)-1-(5-methylpyrimidin-2-yl)propane-2-sulfonamide], for which the EC50 is 14 nM.

For the compound `COc1cccc(-c2nnc(NS(=O)(=O)[C@@H](C)[C@H](OC)c3ncc(Cl)cn3)n2C(C2CC2)C2CC2)n1` [Example 25.0, (1R,2S)-1-(5-chloro-2-pyrimidinyl)-N-(4-(dicyclopropylmethyl)-5-(6-methoxy-2-pyridinyl)-4H-1,2,4-triazol-3-yl)-1-methoxy-2-propanesulfonamide], the EC50 came out at 0.08 nM.

With `CCC(CC)n1c(NS(=O)(=O)[C@@H](C)[C@H](OC)c2ncc(Cl)cn2)nnc1-c1cccc(OC)n1` [Example 10.0, (1R,2S)-1-(5-chloro-2-pyrimidinyl)-1-methoxy-N-(5-(6-methoxy-2-pyridinyl)-4-(3-pentanyl)-4H-1,2,4-triazol-3-yl)-2-propanesulfonamide], the EC50 stood at 0.32 nM.

Turning to `COCCn1c(NS(=O)(=O)[C@@H](C)[C@H](C)c2ncc(OC)cn2)nnc1-c1ccccn1` [Example 21.0, (2S,3R)-N-(4-(2-methoxyethyl)-5-(2-pyridinyl)-4H-1,2,4-triazol-3-yl)-3-(5-methoxy-2-pyrimidinyl)-2-butanesulfonamide], the EC50 came to 430 nM.

With `COc1cccc(-c2nnc(NS(=O)(=O)[C@@H](C)[C@H](C)c3ncc(Cl)cn3)n2[C@@H](C)c2ncn(C)n2)n1` (single isomer, unassigned) [Example 237.0, (2S,3R)-3-(5-chloro-2-pyrimidinyl)-N-(5-(6-methoxy-2-pyridinyl)-4-((1S)-1-(1-methyl-1H-1,2,4-triazol-3-yl)ethyl)-4H-1,2,4-triazol-3-yl)-2-butanesulfonamide or (2S,3R)-3-(5-chloro-2-pyrimidinyl)-N-(5-(6-methoxy-2-pyridinyl)-4-((1R)-1-(1-methyl-1H-1,2,4-triazol-3-yl)ethyl)-4H-1,2,4-triazol-3-yl)-2-butanesulfonamide], the EC50 stood at 130 nM.

`COc1cccc(-c2nnc(NS(=O)(=O)[C@@H](C)[C@H](OC)c3ncc(Cl)cn3)n2C[C@H]2CCCCO2)n1` (racemic) [Example 288.0, (1R,2S)-1-(5-chloropyrimidin-2-yl)-1-methoxy-N-(5-(6-methoxypyridin-2-yl)-4-(((R)-tetrahydro-2H-pyran-2-yl)methyl)-4H-1,2,4-triazol-3-yl)propane-2-sulfonamide or (1R,2S)-1-(5-chloropyrimidin-2-yl)-1-methoxy-N-(5-(6-methoxypyridin-2-yl)-4-(((S)-tetrahydro-2H-pyran-2-yl)methyl)-4H-1,2,4-triazol-3-yl)propane-2-sulfonamide]: the EC50 was 3.3 nM.

As for `COc1cccc(-c2nnc(NS(=O)(=O)[C@@H](C)[C@H](OC)c3ncc(Cl)cn3)n2Cc2cc(C)on2)n1` [Example 271.0, (1R,2S)-1-(5-chloropyrimidin-2-yl)-1-methoxy-N-(5-(6-methoxypyridin-2-yl)-4-((5-methylisoxazol-3-yl)methyl)-4H-1,2,4-triazol-3-yl)propane-2-sulfonamide], the EC50 was determined as 5.4 nM.

Regarding `COc1cccc(-c2nnc(NS(=O)(=O)[C@@H](C)[C@H](OC)c3cnc(C)cn3)n2Cc2cc(C(F)(F)F)no2)n1` [Example 203.0, (1R,2S)-1-methoxy-N-(5-(6-methoxy-2-pyridinyl)-4-((3-(trifluoromethyl)-1,2-oxazol-5-yl)methyl)-4H-1,2,4-triazol-3-yl)-1-(5-methyl-2-pyrazinyl)-2-propanesulfonamide], the EC50 came out at 56 nM.

On to `COc1cccc(-c2nnc(NS(=O)(=O)[C@@H](C)[C@@H](OC(C)C)c3ncc(C)cn3)n2[C@H](c2conc2C)C2CC2)n1` (single isomer, unassigned) [Example 230.0, (1S,2S)-N-(4-((S)-cyclopropyl(3-methyl-1,2-oxazol-4-yl)methyl)-5-(6-methoxy-2-pyridinyl)-4H-1,2,4-triazol-3-yl)-1-(5-methyl-2-pyrimidinyl)-1-(2-propanyloxy)-2-propanesulfonamide or (1S,2S)-N-(4-((R)-cyclopropyl(3-methyl-1,2-oxazol-4-yl)methyl)-5-(6-methoxy-2-pyridinyl)-4H-1,2,4-triazol-3-yl)-1-(5-methyl-2-pyrimidinyl)-1-(2-propanyloxy)-2-propanesulfonamide], for which the EC50 is 0.5 nM.

In the case of `COc1cccc(-c2nnc(NS(=O)(=O)[C@@H](C)[C@H](OC)c3ncc(Cl)cn3)n2CCc2ccc(F)cc2)n1` [Example 74.0], the EC50 came out at 31 nM.

In the case of `COc1cccc(-c2nnc(NS(=O)(=O)[C@@H](C)[C@H](OC)c3ncc(Cl)cn3)n2CCC#N)n1` [Example 44.0], the EC50 stood at 4.9 nM.

`COc1cccc(-c2nnc(NS(=O)(=O)[C@@H](C)[C@H](OC)c3ncc(Cl)cn3)n2CC[S@+](C)[O-])n1` (single isomer, unassigned) [Example 94.0]: the EC50 amounted to 1000 nM.

Turning to `COc1cccc(-c2nnc(NS(=O)(=O)[C@@H](C)[C@H](OC)c3cnc(C)cn3)n2C2CC2)n1` [Example 122.0], the EC50 is 56 nM.

Take `COCC(COC)n1c(NS(=O)(=O)[C@@H](C)[C@H](OC)c2cnc(C)cn2)nnc1-c1cccc(OC)n1` [Example 103.0]: the EC50 stood at 15 nM.

Consider `COCCn1c(NS(=O)(=O)[C@@H](C)[C@H](OC)c2ncc(Cl)cn2)nnc1-c1ccccn1` [Example 132.0], for which the EC50 is 150 nM.

Turning to `COCC(COC)n1c(NS(=O)(=O)[C@@H](C)[C@@H](OC(C)C)c2cnc(C)cn2)nnc1-c1cccc(OC)n1` [Example 105.0], the EC50 was 2.8 nM.

With `COCC1(n2c(NS(=O)(=O)[C@@H](C)[C@H](C)c3cnc(C)cn3)nnc2-c2cccnc2)CC1` [Example 66.0], the EC50 came to 38 nM.

For the compound `COCC(COC)n1c(NS(=O)(=O)[C@@H](C)[C@H](OC)c2cnc(OC)cn2)nnc1-c1cccc(OC)n1` [Example 101.0], the EC50 amounted to 8.9 nM.

For `COc1cnc([C@@H](OC)[C@H](C)S(=O)(=O)Nc2nnc(-c3cccc(OC)n3)n2C2CC2)cn1` [Example 121.0], the EC50 was found to be 21 nM.

Take `COc1cccc(-c2nnc(NS(=O)(=O)[C@@H](C)[C@@H](OC(C)C)c3ncc(C)cn3)n2[C@@H](C)[C@H]2CCCO2)n1` (single isomer, unassigned) [Example 276.0]: the EC50 stood at 1.3 nM.

Take `CC[C@H]([C@@H]1CCCCO1)n1c(NS(=O)(=O)[C@@H](C)[C@H](OC)c2ncc(C)cn2)nnc1-c1cccc(OC)n1` (single isomer, unassigned) [Example 331.0]: the 50% effective concentration (EC50) was determined as 0.6 nM.

In the case of `COc1cccc(-c2nnc(NS(=O)(=O)[C@@H](C)[C@H](OC)c3ncc(Cl)cn3)n2C[C@@H]2CCCOC2)n1` (racemic) [Example 311.0, (1R,2S)-1-(5-chloropyrimidin-2-yl)-1-methoxy-N-(5-(6-methoxypyridin-2-yl)-4-(((R)-tetrahydro-2H-pyran-3-yl)methyl)-4H-1,2,4-triazol-3-yl)propane-2-sulfonamide or (1R,2S)-1-(5-chloropyrimidin-2-yl)-1-methoxy-N-(5-(6-methoxypyridin-2-yl)-4-(((S)-tetrahydro-2H-pyran-3-yl)methyl)-4H-1,2,4-triazol-3-yl)propane-2-sulfonamide], the EC50 was determined as 33 nM.

For the compound `COc1cccc(-c2nnc(NS(=O)(=O)[C@@H](C)[C@@H](OC(C)C)c3ncc(C)cn3)n2[C@H](C)[C@@H]2CCCCO2)n1` (single isomer, unassigned) [Example 324.0], the EC50 came out at 0.35 nM.

As for `COCC1(n2c(NS(=O)(=O)[C@@H](C)[C@H](C)c3ncc(Cl)cn3)nnc2-c2cccnc2)CC1` [Example 68.0], the EC50 was 2.8 nM.

As to `COc1cccc(-c2nnc(NS(=O)(=O)[C@@H](C)[C@H](OC)c3ncc(C)cn3)n2C2CC2)n1` [Example 120.0], the EC50 was 24 nM.

Turning to `COc1ccc(Cn2c(NS(=O)(=O)[C@@H](C)[C@H](OC)c3ncc(Cl)cn3)nnc2-c2cccc(OC)n2)cc1` [Example 170.0, (1R,2S)-1-(5-chloropyrimidin-2-yl)-1-methoxy-N-(4-(4-methoxybenzyl)-5-(6-methoxypyridin-2-yl)-4H-1,2,4-triazol-3-yl)propane-2-sulfonamide], the EC50 came out at 0.76 nM.

On to `COc1cccc(-c2nnc(NS(=O)(=O)[C@@H](C)[C@H](OC)c3ncc(Cl)cn3)n2CCC(N)=O)n1` [Example 45.0], for which the EC50 was determined as 60 nM.

`COc1cccc(-c2nnc(NS(=O)(=O)[C@@H](C)[C@H](OC)c3ncc(Cl)cn3)n2C[C@@H]2CCC[C@H](C)O2)n1` (single isomer, unassigned) [Example 306.0]: the EC50 came to 35 nM.
